Experimental data from ChEMBL document CHEMBL1201862, “PubChem BioAssay data set” (2004).
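Results reflect a 48-hour exposure of cells in 96-well plates to compound at five concentrations. At the GI50, growth is halved.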 Active and inactive are the calls of the source. Cut-off read from the data, not from the text of the source: active = GI50 up to about 1.1 µM and inactive = higher.

Assays:
Experiment in all cases: inhibition of tumour cell growth, NCI panel, 48 h
[1] = system: HOP-92
[2] = system: CAKI-1
[3] = system: NCI-H226
[4] = system: NCI-H522
[5] = system: A549
[6] = system: SNB-19
[7] = system: LOX IMVI
[8] = system: HOP-62
[9] = system: HL-60
[10] = system: U-251
[11] = system: SK-OV-3
[12] = system: IGROV-1
[13] = system: KM12
[14] = system: Malme-3M
[15] = system: MCF7
[16] = system: RXF 393
[17] = system: MDA-N
[18] = system: RPMI-8226
[19] = system: NCI-H460
[20] = system: T47D

Row | SMILES | GI50 [1] | GI50 [2] | GI50 [3] | GI50 [4] | GI50 [5] | GI50 [6] | GI50 [7] | GI50 [8] | GI50 [9] | GI50 [10] | GI50 [11] | GI50 [12] | GI50 [13] | GI50 [14] | GI50 [15] | GI50 [16] | GI50 [17] | GI50 [18] | GI50 [19] | GI50 [20]
1 | Clc1ccccc1C(Nc1cnccn1)Nc1cnccn1 | > 100 µM (inactive) | > 100 µM (inactive) | > 100 µM (inactive) | > 100 µM (inactive) | > 100 µM (inactive) | > 100 µM (inactive) | > 100 µM (inactive) | > 100 µM (inactive) | 0.692 µM (active) | > 100 µM (inactive) | > 100 µM (inactive) | > 100 µM (inactive) | > 100 µM (inactive) | > 100 µM (inactive) | > 100 µM (inactive) | > 100 µM (inactive) | 23.2 µM (inactive) | 35.1 µM (inactive) | > 100 µM (inactive) | > 100 µM (inactive)
2 | Cc1sc2nc(-c3ccc(Cl)c([N+](=O)[O-])c3)c(/C=N/NC(=N)N)n2c1C | 1.4 µM (inactive) | 1.62 µM (inactive) | 1.61 µM (inactive) | 1.71 µM (inactive) | 1.62 µM (inactive) | 1.48 µM (inactive) | 0.585 µM (active) | 0.471 µM (active) | 1.71 µM (inactive) | 0.341 µM (active) | 1.75 µM (inactive) | 1.09 µM (active) | 0.45 µM (active) | 2 µM (inactive) | 0.685 µM (active) | 1.52 µM (inactive) | 0.893 µM (active) | 1.35 µM (inactive) | 1.63 µM (inactive) | 1.46 µM (inactive)
3 | CC1C(c2ccccc2O)c2cc3c(cc2OC1N1CCOCC1)OCO3 (stereo not given) | 27 µM (inactive) | 25.1 µM (inactive) | 25.3 µM (inactive) | 12.4 µM (inactive) | 25.6 µM (inactive) | 40.7 µM (inactive) | 18 µM (inactive) | 18.5 µM (inactive) | 20 µM (inactive) | 26.5 µM (inactive) | 40.1 µM (inactive) | 27.7 µM (inactive) | 27.3 µM (inactive) | 16.9 µM (inactive) | 33 µM (inactive) | 22.6 µM (inactive) | 35.2 µM (inactive) | 15.5 µM (inactive) | 20.6 µM (inactive) | 31.7 µM (inactive)
4 | CC(C)[C@@H]1CC[C@@H](C)C[C@H]1OC(=O)/C=C1\C(C(=O)O[C@@H]2C[C@H](C)CC[C@H]2C(C)C)[C@H]2C=C[C@@H]1O2 (stereo not given in full) | 63 µM (inactive) | > 100 µM (inactive) | 38.3 µM (inactive) | 22.5 µM (inactive) | 80.2 µM (inactive) | > 100 µM (inactive) | 34.1 µM (inactive) | > 100 µM (inactive) | 22.9 µM (inactive) | 51.4 µM (inactive) | > 100 µM (inactive) | > 100 µM (inactive) | 87.7 µM (inactive) | > 100 µM (inactive) | 25.1 µM (inactive) | > 100 µM (inactive) | 83.6 µM (inactive) | 56.1 µM (inactive) | 37.9 µM (inactive) | 75.2 µM (inactive)
5 | O=C(OCCC12CC3CC(CC(C3)C1)C2)c1ccc(NCc2cc(O)ccc2O)cc1 | 3.74 µM (inactive) | 0.363 µM (active) | 2.92 µM (inactive) | 0.148 µM (active) | 2.14 µM (inactive) | 1.26 µM (inactive) | 0.757 µM (active) | 3.56 µM (inactive) | 0.176 µM (active) | 0.445 µM (active) | 2.91 µM (inactive) | 0.0547 µM (active) | 0.69 µM (active) | 1.85 µM (inactive) | 0.557 µM (active) | 0.638 µM (active) | 1.36 µM (inactive) | 0.172 µM (active) | 1.51 µM (inactive) | 0.214 µM (active)
